Common to all, as to test: ≥ marks a high value that may be exact or a test limit, other limits are often not marked, values filed in µg/mL are converted to µM
Test [1] deals with Escherichia coli ATCC 25922.
The test system of test [2] is Staphylococcus aureus NCTC 8325.
The test system of test [3] is Pseudomonas aeruginosa ATCC 9027.
Test [4] deals with Staphylococcus aureus ATCC 6538.
For test [5], the system named is Klebsiella pneumoniae ATCC 13883.
Test [6] concerns Pseudomonas aeruginosa ATCC 27853.
Test [7] concerns Acinetobacter baumannii ATCC 19606.
In test [8] the test system is Staphylococcus aureus ATCC 29213.
Test [9] concerns Candida albicans ATCC 90028.

Values after ≈ are worked out from the molar mass of the structure shown.

The MIC is the lowest concentration that inhibits growth of the organism. High values mean a less susceptible organism, low ones a more susceptible organism. On to `CC[C@H](C)[C@H](NC(=O)CNC(=O)[C@H](CCC(N)=O)NC(=O)[C@H](Cc1ccccc1)NC(=O)[C@@H](NC(=O)[C@H](CCCCN)NC(=O)[C@H](CCCCN)NC(=O)[C@H](CC(C)C)NC(=O)[C@H](C)NC(=O)[C@H](CC(N)=O)NC(=O)[C@H](CC(C)C)NC(=O)CN)C(C)C)C(=O)N[C@@H](Cc1cnc[nH]1)C(=O)N[C@@H](CCC(=O)O)C(=O)N[C@@H](C)C(=O)N[C@@H](Cc1ccccc1)C(=O)N[C@@H](CCCCN)C(=O)N[C@@H](CC(C)C)C(=O)N[C@H](C(=O)N[C@@H](CC(N)=O)C(=O)N[C@@H](CC(N)=O)C(=O)N[C@@H](Cc1cnc[nH]1)C(=O)N[C@H](C(=O)N[C@@H](CCC(N)=O)C(=O)O)C(C)C)[C@@H](C)CC` [GLNALKKVFQGIHEAFKLINNHVQ], for which the MIC was 20 µM (≈ 54.4 µg/mL) in test [1] and at least 160 µM in test [2].
Molecule `CC[C@H](C)[C@H](NC(=O)[C@H](CC(C)C)NC(=O)[C@H](CO)NC(=O)[C@H](C)NC(=O)[C@H](Cc1ccccc1)NC(=O)[C@H](CC(C)C)NC(=O)[C@@H]1CCCN1C(=O)[C@H](CC(C)C)NC(=O)[C@@H](N)Cc1ccccc1)C(=O)NCC(=O)N[C@@H](CCCCN)C(=O)N[C@@H](CC(C)C)C(=O)N[C@@H](CC(C)C)C(N)=O` [FLPLFASLIGKLL] showed an MIC in test [2] of at least 140 µM.
On to `CSCC[C@H](NC(=O)[C@H](CC(C)C)NC(=O)[C@H](CO)NC(=O)CNC(=O)[C@H](C)NC(=O)[C@@H](NC(=O)[C@H](CC(N)=O)NC(=O)[C@H](CCCCN)NC(=O)[C@H](CC(C)C)NC(=O)[C@@H](NC(=O)[C@H](CC(N)=O)NC(=O)[C@H](CCCCN)NC(=O)CNC(=O)[C@@H](NC(=O)[C@H](CCCCN)NC(=O)[C@H](CCCCN)NC(=O)[C@H](Cc1ccccc1)NC(=O)[C@H](C)NC(=O)[C@H](CO)NC(=O)[C@H](Cc1ccccc1)NC(=O)[C@H](CC(C)C)NC(=O)CN)C(C)C)C(C)C)C(C)C)C(=O)N[C@@H](CC(=O)O)C(=O)N[C@@H](CC(N)=O)C(=O)N[C@@H](CC(C)C)C(=O)N[C@@H](CCCCN)C(=O)N[C@H]1CSSC[C@@H](C(=O)O)NC(=O)[C@H](CCC(=O)O)NC(=O)CNC(=O)[C@H](CO)NC(=O)[C@H](C(C)C)NC(=O)[C@H](CCCCN)NC1=O` [GLFSAFKKVGKNVLKNVAGSLMDNLKCKVSGEC], for which the MIC was 3 µM (≈ 10.5 µg/mL) in [1] and at least 50 µM in test [2].
In the same order, the values of `CC[C@H](C)[C@H](NC(=O)[C@H](CCCCN)NC(=O)[C@H](CS)NC(=O)[C@H](Cc1ccccc1)NC(=O)[C@@H](NC(=O)CNC(=O)[C@@H](NC(=O)[C@@H]1CCCN1C(=O)[C@H](Cc1ccccc1)NC(=O)[C@@H](N)Cc1ccccc1)[C@@H](C)CC)C(C)C)C(=O)N[C@@H](Cc1ccccc1)C(=O)N[C@@H](CCCCN)C(=O)N[C@H](C(=O)N[C@@H](CS)C(=O)O)[C@@H](C)O` [FFPIGVFCKIFKTC] are 30 µM (≈ 49.5 µg/mL) and at least 100 µM.
As to `CC(C)C[C@H](NC(=O)[C@H](C)NC(=O)[C@H](CCCCN)NC(=O)[C@H](CCCCN)NC(=O)[C@H](CC(C)C)NC(=O)[C@H](C)NC(=O)[C@H](CCCCN)NC(=O)[C@H](CCCCN)NC(=O)[C@H](CC(C)C)NC(=O)[C@H](CCCCN)NC(=O)[C@H](CCCCN)NC(=O)[C@H](CC(C)C)NC(=O)[C@H](C)NC(=O)[C@H](CCCCN)NC(=O)[C@H](CCCCN)NC(=O)[C@H](CC(C)C)NC(=O)[C@H](C)NC(=O)[C@H](CCCCN)NC(=O)[C@H](CC(C)C)NC(=O)[C@H](C)NC(=O)[C@H](CC(C)C)NC(=O)[C@H](C)NC(=O)[C@@H](N)C(C)C)C(N)=O` [VALALKALKKALKKLKKALKKAL], the MIC in [3] and in test [4] was above 80.3 µM each time.
Regarding `CC[C@H](C)[C@@H]1NC(=O)[C@H](CO)NC(=O)[C@H](C(C)C)NC(=O)[C@H]([C@@H](C)O)NC(=O)[C@H](Cc2c[nH]c3ccccc23)NC(=O)[C@@H](NC(=O)CNC(=O)[C@H](CCCCN)NC(=O)[C@H](CCCCN)NC(=O)[C@H](C)NC(=O)[C@H](C)N)CSSC[C@@H](C(=O)N[C@@H](Cc2ccccc2)C(N)=O)NC(=O)[C@@H]2CCCN2C(=O)[C@H](CCCCN)NC(=O)[C@@H]2CCCN2C(=O)[C@@H]2CCCN2C1=O` [AAKKGCWTVSIPPKPCF], the MIC in [1] was 22.6 µM (≈ 41.4 µg/mL); in [5], 8 µM (≈ 14.6 µg/mL); in test [6] it was 32 µM (≈ 58.6 µg/mL); in test [7], 16 µM (≈ 29.3 µg/mL); in [8], 16 µM (≈ 29.3 µg/mL).
In the case of `CC[C@H](C)[C@H](NC(=O)CNC(=O)[C@H](CCC(N)=O)NC(=O)[C@H](Cc1ccccc1)NC(=O)[C@@H](NC(=O)[C@H](CCCCN)NC(=O)[C@H](CCCCN)NC(=O)[C@H](CC(C)C)NC(=O)[C@H](C)NC(=O)[C@H](CC(N)=O)NC(=O)[C@H](CC(C)C)NC(=O)CN)C(C)C)C(=O)N[C@@H](Cc1cnc[nH]1)C(=O)N[C@@H](CCC(=O)O)C(=O)N[C@@H](C)C(=O)N[C@H](C(=O)N[C@@H](CCCCN)C(=O)N[C@@H](CC(C)C)C(=O)N[C@@H](Cc1ccccc1)C(=O)N[C@@H](CC(N)=O)C(=O)N[C@@H](CC(N)=O)C(=O)N[C@@H](Cc1cnc[nH]1)C(=O)N[C@H](C(=O)N[C@@H](CCC(N)=O)C(=O)O)C(C)C)[C@@H](C)CC` [GLNALKKVFQGIHEAIKLFNNHVQ], the minimal inhibitory concentration (MIC) in test [1] is 10 µM (≈ 27.2 µg/mL); in [2], at least 160 µM.
As for `CC[C@H](C)[C@H](NC(=O)[C@H](CC(C)C)NC(=O)[C@H](CC(=O)O)NC(=O)[C@H](CO)NC(=O)[C@@H](NC(=O)[C@H](C)NC(=O)[C@H](CCCCN)NC(=O)[C@@H](NC(=O)[C@H](C)NC(=O)[C@H](Cc1cnc[nH]1)NC(=O)[C@@H]1CCCN1C(=O)[C@@H](NC(=O)[C@H](CC(C)C)NC(=O)[C@@H]1CCCN1C(=O)CNC(=O)[C@@H](NC(=O)[C@H](Cc1ccc(O)cc1)NC(=O)[C@H](CCCCN)NC(=O)[C@H](CCSC)NC(=O)[C@H](Cc1ccccc1)NC(=O)CN)[C@@H](C)CC)[C@@H](C)CC)C(C)C)[C@@H](C)CC)C(=O)O` [GFMKYIGPLIPHAVKAISDLI], the MIC was 25 µM (≈ 57.1 µg/mL) in [1], at least 100 µM in [2] and at least 200 µM in [9].
On to `CC(C)C[C@H](NC(=O)[C@H](C)NC(=O)[C@H](CCCCN)NC(=O)[C@H](CCCCN)NC(=O)[C@H](CC(C)C)NC(=O)[C@H](C)NC(=O)[C@H](CCCCN)NC(=O)[C@H](CC(C)C)NC(=O)[C@H](C)NC(=O)[C@H](CCCCN)NC(=O)[C@H](CCCCN)NC(=O)[C@H](CC(C)C)NC(=O)[C@H](C)NC(=O)[C@H](CC(C)C)NC(=O)[C@H](C)NC(=O)[C@@H](N)Cc1ccccc1)C(N)=O` [FALALKKALKALKKAL], for which the MIC is 28.9 µM (≈ 50 µg/mL) in test [3] and 2.89 µM (≈ 5 µg/mL) in test [4].
As for `CC[C@H](C)[C@H](NC(=O)CNC(=O)[C@H](CCC(N)=O)NC(=O)[C@H](Cc1ccccc1)NC(=O)[C@@H](NC(=O)[C@H](CCCCN)NC(=O)[C@H](CCCCN)NC(=O)[C@H](CC(C)C)NC(=O)[C@H](C)NC(=O)[C@H](CCCCN)NC(=O)[C@H](CC(C)C)NC(=O)CN)C(C)C)C(=O)N[C@@H](Cc1cnc[nH]1)C(=O)N[C@@H](CCC(=O)O)C(=O)N[C@@H](C)C(=O)N[C@H](C(=O)N[C@@H](CCCCN)C(=O)N[C@@H](CC(C)C)C(=O)N[C@H](C(=O)N[C@@H](CC(N)=O)C(=O)N[C@@H](CC(N)=O)C(=O)N[C@@H](Cc1cnc[nH]1)C(=O)N[C@H](C(=O)N[C@@H](CCC(N)=O)C(=O)O)C(C)C)[C@@H](C)CC)[C@@H](C)CC` [GLKALKKVFQGIHEAIKLINNHVQ], the MIC in test [1] is 10 µM (≈ 27 µg/mL); in [2], at least 80 µM.
On to `CC[C@H](C)[C@H](NC(=O)[C@H](CCCCN)NC(=O)[C@H](CCCCN)NC(=O)[C@H](C)NC(=O)[C@H](CC(C)C)NC(=O)[C@H](CC(N)=O)NC(=O)[C@@H](NC(=O)[C@H](CC(C)C)NC(=O)[C@@H](NC(=O)CNC(=O)[C@H](CC(C)C)NC(=O)[C@H](Cc1ccccc1)NC(=O)[C@@H](N)CC(N)=O)[C@@H](C)O)[C@@H](C)CC)C(=O)N[C@@H](CCSC)C(N)=O` [NFLGTLINLAKKIM], for which the values for the MIC in [1], in test [2] and in test [9] were above 150 µM, at least 48 µM and at least 150 µM, respectively.
The corresponding values for `CC[C@H](C)[C@H](NC(=O)[C@H](CC(C)C)NC(=O)[C@H](CCCCN)NC(=O)[C@H](CO)NC(=O)[C@@H](NC(=O)[C@H](C)NC(=O)[C@H](CCCCN)NC(=O)[C@@H](NC(=O)[C@H](C)NC(=O)[C@H](Cc1cnc[nH]1)NC(=O)[C@@H]1CCCN1C(=O)[C@@H](NC(=O)[C@H](CC(C)C)NC(=O)[C@@H]1CCCN1C(=O)[C@H](CCCCN)NC(=O)[C@@H](NC(=O)[C@H](Cc1ccc(O)cc1)NC(=O)[C@H](CCCCN)NC(=O)[C@H](CCSC)NC(=O)[C@H](Cc1ccccc1)NC(=O)CN)[C@@H](C)CC)[C@@H](C)CC)C(C)C)[C@@H](C)CC)C(=O)O` [GFMKYIKPLIPHAVKAISKLI] are 12.5 µM (≈ 29.6 µg/mL), 25 µM (≈ 59.2 µg/mL) and at least 50 µM.
For `CC(C)C[C@H](NC(=O)CNC(=O)[C@@H](NC(=O)[C@@H]1CCCN1C(=O)[C@H](CC(C)C)NC(=O)CNC(=O)[C@H](CC(N)=O)NC(=O)[C@H](CC(N)=O)NC(=O)[C@H](Cc1ccc(O)cc1)NC(=O)[C@@H](NC(=O)[C@H](CCCN=C(N)N)NC(=O)[C@H](CS)NC(=O)[C@H](CCCN=C(N)N)NC(=O)[C@H](Cc1cnc[nH]1)NC(=O)[C@@H](N)CCCCN)C(C)C)[C@@H](C)O)C(=O)N[C@@H](Cc1ccc(O)cc1)C(=O)N[C@@H](CCCN=C(N)N)C(=O)N[C@@H](Cc1c[nH]c2ccccc12)C(=O)N[C@@H](CS)C(N)=O` [KHRCRVYNNGLPTGLYRWC], in test [4], the MIC worked out at 4.8 µM (≈ 11.2 µg/mL).
